Measurements as given in US11096967B2, “Pharmaceutical composition for preventing or treating regulatory T cell-mediated diseases” (SCM LIFESCIENCE CO., LTD., priority 2016, dated 2021).

Experiments:
Type in all cases: cell-based, human
[1] = tested on: PI3K-Akt signaling pathway; assay: Akt phosphorylation in CD4^+ T cells (Western blotting); settings: pre-treatment 30 min; LY294002 5 μM, GSK690693 1 μM
Method: Five independent experiments were carried out. […] After 2 days, hcMSCs were washed three times with cold phosphate-buffered saline (PBS) containing 0.05 mM ethylenediamine tetraacetic acid (EDTA) to detach lymphocytes from hcMSCs. Then, hcMSCs were trypsinized and washed twice with cold PBS-EDTA solution and stained with phycoerythrin (PE)-conjugated ICOSL antibody (BioLegend) to analyze ICOSL expression.
More particularly, CD4^+ T cells were pre-treated with LY294002 (5 μM) and GSK690693 (1 μM) for 30 min. […] Total Akt was determined.

CD4^+ T cells = assay: Effect of PI3K-Akt inhibitors on rhICOSL- or hcMSC-induced Treg induction; settings: 2 days; LY294002 5 μM, GSK690693 1 μM
Method: Akt inhibitor […] (Calbiochem, San Diego, Calif., USA) was used at a concentration of 1 μM and LY294002 (Cell Signaling Technology, Danvers, Mass., USA) was used at concentration of 5 to 10 μM. […] Total Akt was determined. […] The results are illustrated in FIG. 14.

ICOSL = ICOSL induction in hcMSC by priming factors (qRT-PCR, RT-PCR); settings: for levels of ICOSL mRNA in hcMSCs: IL-1β 10 ng/mL, TNF-α 10 ng/mL, LPS 2 μg/mL, qRT-PCR
From the text: It has been known that the immunosuppressive activity of MSCs can be influenced by various priming or appropriate stimulations. It was confirmed that ICOSL expression in hcMSCs correlated with Treg induction. Thus, it was expected that ICOSL expression was enhanced to increase Treg and to strengthen the immunosuppressive function of hcMSCs. To confirm this expectation, an experiment was first carried out to confirm pro-inflammatory cytokine that can induce ICOSL expression. First, to find appropriate priming factors, hcMSCs were treated with IL-1β (10 ng/mL), TNF-α (10 ng/mL) and LPS (2 μg/mL) for 24 hours. Then, ICOSL expression was determined after 1 hour and 3 hours though qRT-PCR. Further, in order to confirm whether the expression of IL-1R in hcMSC was changed by […] treatment, the expression of IL-1R in hcMSC was confirmed after treatment with IL-1β for 24 hours. The results are illustrated in FIG. 16.

Compound	rhICOSL-induced Akt phosphorylation [1]	rhICOSL or hcMSC-induced Tregs (CD4^+ T cells)	levels of ICOSL mRNA in hcMSCs (ICOSL)	levels of ICOSL mRNA in hcMSCs (ICOSL; listed as IL-10)	expression of IL-1R mRNA in hcMSC (ICOSL; IL-1β 10 ng/ml, 24 hours)
CCn1c(-c2nonc2N)nc2c(C#CC(C)(C)O)ncc(OC[C@H]3CCCNC3)c21 [GSK690693]	marked decrease in Akt phosphorylation	decreased			
IL-1β: pro-inflammatory cytokine used as priming factor for hcMSCs			highest effect	increased	did not change the expression of IL-1R mRNA
TNF-α			increased		
